Literature values as cited in patent US20210069354A1, “METHOD OF TRANSPORTING AN AGENT ACROSS BLOOD-BRAIN, BLOOD-COCHLEAR OR BLOOD-CEREBROSPINAL FLUID BARRIER” (Oklahoma Medical Research Foundation, priority 2015, published 2021).

Settings: normal brain

O=C([O-])CN(CCN(CC(=O)[O-])CC(=O)O)CCN(CC(=O)[O-])CC(=O)O.[Gd+3] [Gd-DTPA, gadolinium diethylene triamine penta acetic acid]
crossing of the BBB: does not cross the BBB
